In the NIST ThermoML archive (doi:10.1021/je900298e):
± gives the expanded uncertainty stated by the source.

Conditions: 101.33 kPa, Liquid

With `CCCC[N+]1(C)CCCC1.O=S(=O)([N-]S(=O)(=O)C(F)(F)F)C(F)(F)F` the mass density (289 K) was 1404.3 ± 1.6 kg/m3, the mass density (291 K) was 1402.6 ± 1.5 kg/m3 and the mass density (293 K) was 1401 ± 1.5 kg/m3. The mass density (295 K) was 1399.4 ± 1.5 kg/m3, the mass density (297.05 K) was 1397.8 ± 1.5 kg/m3 and the mass density (299.05 K) was 1396.2 ± 1.5 kg/m3. For the same molecule, the mass density (301.05 K) was 1394.6 ± 1.5 kg/m3, the mass density (303.1 K) was 1393.1 ± 1.5 kg/m3 and the mass density (305.1 K) was 1391.5 ± 1.5 kg/m3. It also gave a mass density (307.1 K) of 1390 ± 1.5 kg/m3 and a mass density (309.1 K) of 1388.5 ± 1.5 kg/m3.
